One data set addresses T1, xanthine oxidase (Homo sapiens, UniProt P47989).
T1 construct: from tissue; host or cells: pooled chronic wound fluid (CWF), retentate of 3K ultrafiltration
The experiment in a line: Xanthine oxidase activity and inhibition in pooled chronic wound fluid (CWF), RP-HPLC. The format is biochemical. As to conditions: pooled CWF retentate, 10 μmol/L allopurinol, 37° C., 2.5 hr. How it is done:
Additionally, samples were treated with allopurinol, a specific XO inhibitor, and the production of the metabolite oxypurinol determined at A254. Firstly, CWF was concentrated by centrifugation using nanosep 3K omega filters (PALL) at 10,000 g for 10 min at 4° C. The retentate was resuspended with 10 mM Tris-HCl buffer, pH 8.0 containing either 10 μmol/L of xanthine or allopurinol, then incubated at 37° C. for 2.5 hr in the ultrafiltration unit. After incubation, the reaction mixture was de-proteinised as per the manufacturer's instructions and the resulting filtrates analysed using reverse phase HPLC as previously outlined.
In further support of this finding, XO enzyme inhibition was assayed using a potent XO inhibitor, allopurinol. Allopurinol is rapidly metabolised by XO to generate the active metabolite, oxypurinol, which itself is an inhibitor of XO. […] Western blotting confirmed the presence of the enzyme in wound fluid (data not shown).

For a further data set, the system named is mice. As to conditions: cited from earlier work.

Read-outs that look alike come from different tables or passages of the source.

The source of these data is patent US20120219536A1, “PURINE-TARGETED DIAGNOSIS AND THERAPY OF WOUNDS” (Queensland University of Technology, priority 2009, published 2012).

T1 sequence (P47989 whole entry): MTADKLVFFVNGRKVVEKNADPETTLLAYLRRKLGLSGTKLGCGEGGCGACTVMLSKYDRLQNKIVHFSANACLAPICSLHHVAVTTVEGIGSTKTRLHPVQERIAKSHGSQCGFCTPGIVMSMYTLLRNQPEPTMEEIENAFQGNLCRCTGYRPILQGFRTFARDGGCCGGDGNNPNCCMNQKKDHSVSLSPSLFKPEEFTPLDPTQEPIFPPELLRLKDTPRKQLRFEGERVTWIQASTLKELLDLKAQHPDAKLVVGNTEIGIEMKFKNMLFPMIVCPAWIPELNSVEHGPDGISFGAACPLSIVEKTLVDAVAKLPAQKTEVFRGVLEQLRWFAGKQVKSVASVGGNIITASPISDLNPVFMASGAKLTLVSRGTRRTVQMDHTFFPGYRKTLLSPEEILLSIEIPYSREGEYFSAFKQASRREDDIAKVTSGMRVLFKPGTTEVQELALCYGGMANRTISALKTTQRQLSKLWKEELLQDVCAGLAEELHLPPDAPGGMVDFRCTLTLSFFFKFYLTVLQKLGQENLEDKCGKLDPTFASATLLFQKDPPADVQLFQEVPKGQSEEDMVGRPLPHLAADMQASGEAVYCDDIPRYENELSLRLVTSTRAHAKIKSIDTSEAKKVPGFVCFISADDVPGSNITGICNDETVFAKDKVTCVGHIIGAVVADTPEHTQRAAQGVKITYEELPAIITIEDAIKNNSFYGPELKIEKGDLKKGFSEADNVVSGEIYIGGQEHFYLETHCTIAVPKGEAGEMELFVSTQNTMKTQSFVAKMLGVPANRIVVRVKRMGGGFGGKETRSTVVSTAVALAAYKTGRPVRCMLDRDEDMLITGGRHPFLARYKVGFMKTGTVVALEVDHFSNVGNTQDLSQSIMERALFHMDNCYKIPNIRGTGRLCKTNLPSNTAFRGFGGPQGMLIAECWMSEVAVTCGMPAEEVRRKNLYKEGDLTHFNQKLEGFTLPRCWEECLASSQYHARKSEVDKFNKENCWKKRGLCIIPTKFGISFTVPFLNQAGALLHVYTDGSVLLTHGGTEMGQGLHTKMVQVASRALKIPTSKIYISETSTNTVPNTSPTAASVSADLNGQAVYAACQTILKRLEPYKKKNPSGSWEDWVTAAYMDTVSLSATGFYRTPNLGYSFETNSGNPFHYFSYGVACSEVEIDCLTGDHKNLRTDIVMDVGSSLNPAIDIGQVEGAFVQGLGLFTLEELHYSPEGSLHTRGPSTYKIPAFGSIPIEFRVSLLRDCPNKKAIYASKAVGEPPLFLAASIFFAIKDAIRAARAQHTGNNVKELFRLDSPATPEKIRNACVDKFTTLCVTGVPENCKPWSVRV

Turning to “1,4-dihydropyrazolo[4,3-d]pyrimidin-7-one [Allopurinol]”, the “production of the metabolite oxypurinol by XO” value on xanthine oxidase (HPLC at A254) is “a peak consistent with the retention time of oxypurinol standard was detected”. The “XO enzyme inhibition: production of uric acid” value at xanthine oxidase (HPLC at A280) was “did not reveal a peak corresponding to uric acid”. In addition, the “50% lethal dose (LD50)” value with mice (given intraperitoneally) is 160 mg/kg; with mice (given orally), 700 mg/kg.
